Source: patent publication US10172915B2, “Methods and compositions for activation of sirtuins with Annexin A1 peptides” (Duke University, priority 2013, dated 2019)
No end group written: not given here.

How the values were obtained:
[1] = test system: SIRT3; experiment: Myocardial SIRT3 in DHCA rats (Western blot, confocal microscopy); type: in vivo, rat; conditions: for Expression (44-kDa) and activation (28-kDa) of myocardial SIRT3: 60 min DHCA at 18° C., 2 mg/kg iv, 3 hours post-perfusion, p<0.05 vs vehicle; for SIRT3 level and mitochondrial localization in rat myocardium (confocal): 60 min DHCA, 3 h reperfusion
Method: (§1) Proteins were separated by electrophoresis on SDS-PAGE and then transferred onto PVDF-Plus membrane (Millipore). After being blocked with 5% milk, the immunoblots were probed with appropriate antibodies to SIRT3 (Cell Signaling or Abcam), MPP (Santa Cruz), MnSOD, P-AMPK, COXIV, GAPDH (Cell Signaling), and caspase-3 (Cell Signaling, MA) overnight at 4° C. followed by incubation with the corresponding secondary antibodies at room temperature for 1 h. The blots were visualized with the SuperSignal West Dura Extended Duration Substrate (Thermo Scientific) by a gel imaging system (Alpha Innotech).
(§2) Separate groups of animals underwent 60 minutes of DHCA (18° C.) with a similar treatment design, with animals randomly assigned to sham, CPB/DHCA (Vehicle), DHCA+ANXA1sp (ANXA1sp), or DHCA+scrambled peptide (scrPEP). All rats were subjected to 60 minutes DHCA at 18° C. and received either vehicle (1% DMSO saline), ANXA1sp (total 2 mg/kg), or scrPEP (total 2 mg/kg) iv 1 h before CPB and 1 h after reperfusion (FIG. 10C). Sham operated animals were only cannulated/without CPB/DHCA as baseline control. At 3, 6, and 24 h of post-perfusion, heart and serum samples were harvested. Blood samples were collected and stored at −80° C. until analysis. A small portion of heart tissue from each animal was immediately fixed in 10% buffered formalin, embedded in paraffin, and sectioned for immunostaining, confocal colocalization microscopy, and apoptotic TUNEL staining. Myocardial whole-tissue lysates were obtained at the end of each experiment according to the manufacturer's protocol (Affymetrix). The remaining heart tissues were stored at −80° C. FIG. 10 depicts a diagram of the rat surgical model and schematics of the experimental protocols.
Confocal studies were performed as described previously. Paraffin sections were deparaffinized using xylene and descending grades of ethanol, pretreated with microwave irradiation (350 W, for 5 min in 200 ml of 0.1M Citrate buffer, pH 6.0). Tissue sections were incubated with rabbit monoclonal IgG anti-SIRT3 (Cell Signaling) and mouse monoclonal IgG anti-COXIV (Cell Signaling) at 4° C. overnight. After washing, tissue sections were incubated with Alexa555 conjugated donkey anti-mouse IgG and Alexa488 conjugated goat anti-rabbit IgG (Molecular Probes) for 1 h at RT. Images were acquired with a confocal microscope (Zeiss Invert 510 Microscope). The control experiments were performed using mouse IgG and/or rabbit IgG.

[2] = test system: ventricular contractile function ex vivo; conditions: cited from earlier work
[3] = test system: rat coronary ligation models; conditions: cited from earlier work
[4] = test system: mitochondrial protein lysine-acetylation; experiment: Mitochondrial protein lysine acetylation in ARVCs after OGD/reoxygenation; type: cell-based, rat; conditions: ARVCs following OGD/reoxygenation
Method: (§3) After 24 h incubation, ARVCs were pre-treated with known concentrations of ANXA1sp or scrPEP in growth medium for 1 h, and subjected to 2 h oxygen-glucose-deprivation (OGD: DMEM no glucose, 85% N2/10% H2/5% CO2) in a OGD station chamber/Anaerobic System (Farma Scientific), followed by reoxygenation with 10 μM ANXA1sp or scrPEP in growth medium for 3, 6, and 24 h in a 37° C. and 5% CO2 growth chamber, respectively.

[5] = test system: adult rat ventricular cardiomyocytes with SIRT3 siRNA; experiment: siRNA knock-down of SIRT3 in ARVCs with simulated IR, rescue; type: cell-based; conditions: simulated ischemia-reperfusion
Method: ARVC siRNA transfection: after 24 h of incubation with AW Medium (Cellutron Cat #M-8034) without antibiotics, ARVCs were transfected with a specific SIRT3-siRNA or a scrambled RNA (scrRNA) as control, according to manufacturer's protocol (Santa Cruz). Transfection efficiency was estimated by Western blotting of the target protein (A). ARVC, adult rat ventricular cardiomyocytes; OGD, oxygen-glucose deprivation; scrR, scrambled RNA; siR, SIRT3 siRNA; SP, ANXA1sp; V, vehicle control; scrR+V, scramble RNA with vehicle control; scrR+SP, scramble RNA with ANXA1sp; siR+V, SIRT3 siRNA with vehicle control; siR+SP, SIRT3 siRNA with ANXA1sp; cTnI, cardiac troponin I measured in supernatant. Results presented as mean±SD (n=3). GAPDH used as loading control.

[6] = test system: protein lysine acetylation; experiment: Protein lysine acetylation in left ventricular myocardial lysates of DHCA rats; type: in vivo, rat; conditions: 60 min DHCA, 6 h reperfusion
Method: (§4) FIG. 15. Increased SIRT3 activity with ANXA1sp treatment is associated with reduced protein lysine acetylation in left ventricular myocardial lysates from rats following 60 min DHCA and 6 h reperfusion (panel A). This included deacetylation of MnSOD (known to increase its reactive oxygen species scavenging activity). Acetylated proteins were immunoprecipitated with anti-acetyl lysine antibody, and deacetylated MnSOD levels were assessed in the supernatant via Western blot (panel B). […] Results presented as mean±SD (n=5/group), *P<0.05. anti-Ac-K, acetylated lysine antibody; IP, immuno-precipitation; WB, Western blot; ROS, reactive oxygen species; MnSOD, manganese superoxide dismutase.
(§5) Separate groups of animals underwent 60 minutes of DHCA (18° C.) with a similar treatment design, with animals randomly assigned to sham, CPB/DHCA (Vehicle), DHCA+ANXA1sp (ANXA1sp), or DHCA+scrambled peptide (scrPEP). All rats were subjected to 60 minutes DHCA at 18° C. and received either vehicle (1% DMSO saline), ANXA1sp (total 2 mg/kg), or scrPEP (total 2 mg/kg) iv 1 h before CPB and 1 h after reperfusion (FIG. 10C). Sham operated animals were only cannulated/without CPB/DHCA as baseline control. At 3, 6, and 24 h of post-perfusion, heart and serum samples were harvested. Blood samples were collected and stored at −80° C. until analysis. […]

[7] = test system: cellular levels of ATP; experiment: Cellular ATP levels in ARVCs after OGD/reoxygenation; type: cell-based, rat
Method: as §3
(§6) Blood samples were collected from each rat at 24 h after CPB/DHCA. Samples were immediately cooled to 4° C. and centrifuged at 3,000 rpm for 10 minutes at 4° C. Serum was collected and stored at −80° C. until assay. Whole cell lysate from heart tissues was obtained according to manufacturer's instruction (Panomics) and used for measurement of pro-inflammatory cytokines IL-6, TNFα and MPO by an ELISA method (Thermo Scientific). Cellular levels of ATP were measured by ELISA (Abeam).

[8] = test system: AMP-activated protein kinase (AMPK); experiment: AMPK phosphorylation in myocardium of DHCA rats; type: in vivo, rat; conditions: 60 min DHCA, 3 h reperfusion
Method: (§7) FIG. 16. […] Results presented as mean±SD (n=5), *P<0.05 and ^#P<0.01. P-AMPK, phosphorylated AMPK. GAPDH used as loading control.
as §2

[9] = test system: rats rendered acutely hyperglycemic, cardioplegic arrest; experiment: Rat CPB/CA model in acutely hyperglycemic rats; type: in vivo; conditions: blood glucose>300 mg/dl, Dextrose 25%, 5 gm/kg
Method: Because of the known effects of hyperglycemia to blunt cardioprotective mechanisms, the effects of ANXA1sp were further tested in rats rendered acutely hyperglycemic (blood glucose>300 mg/dl) through perioperative administration of Dextrose (25%, 5 gm/kg). […] Physiological parameters during the conduct of CPB/CA were similar between treatment groups.

[10] = test system: myocardial levels of ATP; experiment: Myocardial ATP levels in DHCA rats; type: in vivo, rat; conditions: 60 min DHCA, 3 h reperfusion
Method: as §7, §6

[11] = test system: AMP-activated protein kinase (AMPK); experiment: AMPK phosphorylation in ARVCs after OGD/reoxygenation; type: cell-based, rat; conditions: 2 h OGD, 3 h reoxygenation
Method: as §3, §1

[12] = test system: SIRT3; experiment: SIRT3 expression in ARVCs after OGD/reoxygenation (Western blot, confocal microscopy); type: cell-based, rat
Method: as §3, §1
Confocal studies were performed as described previously. MitoTraker Deep Red FM (Invitrogen) was added into culture medium to make the final concentration of 0.4 μM and incubated at 37° C. for 45 min. After being washed, fixed, permeabilized, and blocked, rabbit monoclonal IgG anti-SIRT3 (Abcam) was added at 4° C. for overnight. Cells were subsequently incubated with Alexa-488 conjugated goat anti-rabbit IgG (Molecular Probes) for 1 h at RT. Images were acquired with a confocal microscope (Zeiss Invert 510 Microscope).

[13] = test system: NF-κB p65 subunit; experiment: NF-κB p65 acetylation and NF-κB activity in DHCA rats; type: in vivo, rat
Method: FIG. 18. Increased SIRT1 expression with ANXA1sp treatment is also associated with reduced acetylation of NF-κB p65 subunit (at lysine 310 residue) following DHCA in rats. Rats underwent 1 hour DHCA at 18° C. and received either vehicle or ANXA1sp (2 mg/kg, iv) followed by 6 hours reperfusion. Levels of acetylated NF-κB p65 were determined in left ventricular myocardium tissue lysates by Western blot. Results presented as mean±SD (n=4), *p<0.001. DHCA, deep hypothermic circulatory arrest; P65-Ac(K310), lysine 310 acetylated NF-κB p65 subunit. GAPDH used as loading control.
as §2

[14] = test system: rats, deep hypothermic circulatory arrest; experiment: Rat model of deep hypothermic circulatory arrest (DHCA), myocardial injury; type: in vivo; conditions: 60 min DHCA
Method: as §2
The following endpoints were assessed: plasma cTnI and heart-type fatty acid binding protein (HFABP, ELISA, Life Diagnosis); myocardial apoptosis as levels of cleaved caspase-3 (Western blot) and TUNEL assays (Roche); and echocardiographic left ventricular function. Myocardial levels of TNFα, IL-6, and myeloperoxidase (MPO) were analyzed by ELISA. SIRT3 and cytochrome c were measured in isolated mitochondria by Western blot.
Blood samples were collected from each rat at 24 h after CPB/DHCA. […] Cellular levels of ATP were measured by ELISA (Abeam).
TUNEL assay was performed using the In Situ Cell Death Detection Kit (Roche Molecular Biochemicals) according to manufacturer's protocol. […] The reaction was terminated with stop solution and fluorescent apoptotic signal was detected using a fluorescence microscope (Zeiss LSM 510 inverted confocal). Ten fields of each tissue section were randomly chosen and a total of 50 cells per field were counted. […]

[15] = test system: reactive oxygen species; experiment: Reactive oxygen species in hearts of DHCA rats (ELISA); type: in vivo, rat; conditions: 60 min DHCA, 6 h reperfusion
Method: as §4, §5

Q: With “Ac-W^10Q^11A^12 [scrPEP, reference compound]” as the substance, how does the “Expression (44-kDa) and activation (28-kDa) of myocardial SIRT3” value [1] read?
A: had no such effects

Q: And the “SIRT3 level and mitochondrial localization in rat myocardium (confocal)” value [1]?
A: has no such effects

Q: Which “Post-ischemic recovery of ventricular contractile function” value [2] does the source give for “Ac-Ala-Met-Val-Ser-Glu-Phe-Leu-Lys-Gln-Ala-Trp-Phe-Ile-Glu-Asn-Glu-Glu-Gln-Glu-Tyr-Val-Gln-Tyr-Val-Lys (Ac-AMVSEFLKQAWFIENEEQEYVQYVK) [Ac2-26, 25mer peptide derived from annexin 1, commercially available]” here?
A: improves post-ischemic recovery of ventricular contractile function

Q: And the “Neutrophil dependent myocardial necrosis” value [3]?
A: inhibits neutrophil dependent myocardial necrosis

Q: Which Protein acetylation [4] does the source give for Ac-Gln-Ala-Trp [ANXA1sp] here?
A: significant reduction in protein acetylation

Q: And the “Rescue of increased cell necrosis and apoptosis after SIRT3 knock down” value [5]?
A: partially rescued

Q: What about the “Protein acetylation in myocardial tissue homogenates” value [6] of the same substance?
A: significant reduction of protein acetylation

Q: And the ATP concentrations [7]?
A: increased ATP concentrations

Q: What about the “Phosphorylation of AMPK (P-AMPK) in left ventricular myocardial lysates” value [8] of the same substance?
A: increased phosphorylation of AMP-activated protein kinase

Q: And the “Hyperglycemic exacerbation of myocardial injury and inflammation” value [9]?
A: significantly attenuated

Q: And the “Myocardial levels of ATP” value [10]?
A: increased myocardial levels of ATP

Q: And the “Phosphorylation of AMPK” value [11]?
A: increased phosphorylation of AMPK

Q: And the “SIRT3 full-length and short form proteins in cell lysates” value ([12]; ARVCs after OGD/reoxygenation, Western blot)?
A: significantly increased SIRT3 in both full-length and short form proteins

Q: And the “SIRT3 expression in isolated mitochondria” value ([12]; ARVCs subjected to OGD)?
A: increased SIRT3 expression in isolated mitochondria

Q: What about the “SIRT3 in mitochondria by confocal microscopy” value ([12]; cultured ARVCs, 10 μM, 2 h OGD, 3 h reoxygenation) of the same substance?
A: significantly increased in mitochondria

Q: And the “Acetylation of NF-κB p65 (K310)” value ([13]; 1 hour DHCA, 2 mg/kg iv, 6 hours reperfusion)?
A: attenuated acetylation of NF-kB p65

Q: And the NF-κB transcriptional activity ([13]; DHCA rats)?
A: suppressed NF-κB transcriptional activity

Q: What about the “NF-κB-mediated gene expression of TNFα” value ([13]; DHCA rats) of the same substance?
A: significantly down-regulated

Q: And the “Cleaved caspase-3 activity by Western blot” value [14]?
A: significantly decreased

Q: What about the “Myocardial apoptosis by TUNEL staining” value ([14]; 24 h post-reperfusion) of the same substance?
A: significantly decreased myocardial apoptosis

Q: And the “Serum cTnI (ELISA)” value ([14]; multiple reperfusion time points)?
A: significantly decreased

Q: What about the “Cellular levels of reactive oxygen species in hearts” value [15] of the same substance?
A: decreased cellular levels of reactive oxygen species

Q: What about the “Expression (44-kDa) and activation (28-kDa) of myocardial SIRT3” value [1] of the same substance?
A: significantly restored expression and activation of SIRT3

Q: And the “SIRT3 level and mitochondrial localization in rat myocardium (confocal)” value [1]?
A: robustly increased SIRT3 and was predominantly localized in the mitochondria
